Measurements from patent US4224371A, “Sodium 3-acetoxylmethyl-7-[2-(2-amino-4-thiazolyl)-2-methoxyimino-acetamido]-ce ph-3-eme-4-carboxylate” (priority 1977, dated 1980).
Counter-ions that a name gives are not always drawn. Like-named read-outs stand apart in the source and are kept apart here.

Key:
[1] = Affinity to atmospheric humidity / hygroscopicity; format: physicochemical; settings: solid
[2] = Stability test, percent of activity remaining on storage; format: physicochemical; settings: nonsterile air; for % of activity after storage: time 0, closed flask
Experimental: Product A was placed in a flask containing nonsterile air and it was closed with a rubber stopper. The flask was stored at the temperatures for the times indicated in the following table and the percent of activity remaining was determined.

[3] = tested on: Proteus Mirabilis 9048; assay: In vitro antibacterial activity, liquid medium dilution (MIC); format: cell-based; settings: 37° C., read-out: minimum inhibiting concentration (MIC)
Experimental: (§1) The method used was a dilution of a liquid medium where a series of tubes received the same quantity of a sterile nutritive media and increasing doses of the test compounds were placed therein. Then each tube was seeded with a bacterial strain and was incubated for 24 to 48 hours at 37° C. in an oven. The increasing inhibition was determined by transillumination to determine the minimum inhibiting concentration (MIC in μg/ml) and the results are reported in the following Tables.
(§2) Product A is the crystalline D form of the syn isomer of sodium 3-acetoxymethyl-7-[2-(2-amino-4-thiazolyl)-2-methoxyimino-acetamido]-ceph- 3-eme-4-carboxylate.

[4] = tested on: Salmonella typhimurium 6478; assay: as above; format: cell-based; settings: Salmonella enterica, 37° C., read-out: minimum inhibiting concentration (MIC)
Experimental: as §1, §2

[5] = tested on: Escherichia Coli A 223; assay: as above; format: cell-based; settings: 37° C., read-out: minimum inhibiting concentration (MIC)
Experimental: as §1, §2

[6] = tested on: Staphylococcus aureus I H 005; assay: as above; format: cell-based; settings: 37° C., read-out: minimum inhibiting concentration (MIC)
Experimental: as §1, §2

[7] = tested on: Escherichia Coli T 55 4076; assay: as above; format: cell-based; settings: 37° C., read-out: minimum inhibiting concentration (MIC)
Experimental: as §1, §2

[8] = tested on: Proteus Vulgaris Co 4; assay: as above; format: cell-based; settings: 37° C., read-out: minimum inhibiting concentration (MIC)
Experimental: as §1, §2

[9] = tested on: Staphylococcus aureus I H 47; assay: as above; format: cell-based; settings: 37° C., read-out: minimum inhibiting concentration (MIC)
Experimental: as §1, §2

[10] = tested on: Proteus Vulgaris Du 27; assay: as above; format: cell-based; settings: 37° C., read-out: minimum inhibiting concentration (MIC)
Experimental: as §1, §2

[11] = tested on: Proteus Mirabilis 3477; assay: as above; format: cell-based; settings: 37° C., read-out: minimum inhibiting concentration (MIC)
Experimental: as §1, §2

[12] = tested on: Staphylococcus aureus I H 41; assay: as above; format: cell-based; settings: 37° C., read-out: minimum inhibiting concentration (MIC)
Experimental: as §1, §2

[13] = tested on: Proteus Mirabilis 1816; assay: as above; format: cell-based; settings: 37° C., read-out: minimum inhibiting concentration (MIC)
Experimental: as §1, §2

[14] = tested on: Klebsiella Pneumoniae COc 238; assay: as above; format: cell-based; settings: 37° C., read-out: minimum inhibiting concentration (MIC)
Experimental: as §1, §2

[15] = tested on: Escherichia Coli T 55 4376; assay: as above; format: cell-based; settings: 37° C., read-out: minimum inhibiting concentration (MIC)
Experimental: as §1, §2

[16] = tested on: Staphylococcus aureus I H 38; assay: as above; format: cell-based; settings: 37° C., read-out: minimum inhibiting concentration (MIC)
Experimental: as §1, §2

[17] = tested on: Escherichia Coli 7881; assay: as above; format: cell-based; settings: 37° C., read-out: minimum inhibiting concentration (MIC)
Experimental: as §1, §2

[18] = tested on: Klebsiella Pneumoniae COc 229; assay: as above; format: cell-based; settings: 37° C., read-out: minimum inhibiting concentration (MIC)
Experimental: as §1, §2

[19] = tested on: Proteus Vulgaris Co 1; assay: as above; format: cell-based; settings: 37° C., read-out: minimum inhibiting concentration (MIC)
Experimental: as §1, §2

CO/N=C(\C(=O)NC1C(=O)N2C(C(=O)O)=C(COC(C)=O)CSC12)c1csc(N)n1 (stereo not drawn) [sodium salt not containing methanol, sodium 3-acetoxymethyl-7-[2-(2-amino-4-thiazolyl)-2-methoxyimino-acetamido]-ceph-3-eme-4-carboxylate]
affinity to atmospheric humidity / hygroscopicity [1]: hygroscopic

CO/N=C(\C(=O)NC1C(=O)N2C(C(=O)O)=C(COC(C)=O)CSC12)c1csc(N)n1 (stereo not drawn) [Product A, sodium 3-acetoxymethyl-7-[2-(2-amino-4-thiazolyl)-2-methoxyimino-acetamido]-ceph-3-eme-4-carboxylate]
remaining at 1080 h ([2]; 50° C., 1.5 months, closed flask, read-out: % of activity after storage): 92.5%
remaining at 2160 h ([2]; 50° C., 3 months, closed flask, read-out: % of activity after storage): 92%
% of activity after storage ([2]; 50° C.): 97%
remaining at 336 h ([2]; 80° C., 2 weeks, closed flask, read-out: % of activity after storage): 81.5%
remaining at 160 h ([2]; 80° C., 160 hours, closed flask, read-out: % of activity after storage): 89.5%
% of activity after storage ([2]; 80° C.): 97%
MIC ([3]; 24 H): 0.02 µg/mL
MIC ([3]; 48 H): 0.02 µg/mL
MIC ([4]; 24 H): 0.1 µg/mL
MIC ([4]; 48 H): 0.1 µg/mL
MIC ([5]; COLIA223, 24 H): 0.1 µg/mL
MIC ([5]; COLIA223, 48 H): 0.1 µg/mL
MIC ([6]; IH005, 24 H): 2 µg/mL
MIC ([6]; IH005, 48 H): 3 µg/mL
MIC ([7]; COLIT554076, 24 H): 0.05 µg/mL
MIC ([7]; COLIT554076, 48 H): 0.05 µg/mL
MIC ([8]; 24 H): 0.6 µg/mL
MIC ([8]; 48 H): 0.6 µg/mL
MIC ([9]; IH47, 24 H): 2 µg/mL
MIC ([9]; IH47, 48 H): 2 µg/mL
MIC ([10]; 24 H): ≤ 0.02 µg/mL
MIC ([10]; 48 H): ≤ 0.02 µg/mL
MIC ([11]; 24 H): 0.05 µg/mL
MIC ([11]; 48 H): 0.05 µg/mL
MIC ([12]; IH41, 24 H): 1 µg/mL
MIC ([12]; IH41, 48 H): 2 µg/mL
MIC ([13]; 24 H): 0.05 µg/mL
MIC ([13]; 48 H): 0.05 µg/mL
MIC ([14]; 24 H): 0.2 µg/mL
MIC ([14]; 48 H): 0.2 µg/mL
MIC ([15]; COLIT554376, 24 H): 0.1 µg/mL
MIC ([15]; COLIT554376, 48 H): 0.1 µg/mL
MIC ([16]; IH38, 24 H): 1 µg/mL
MIC ([16]; IH38, 48 H): 2 µg/mL
MIC ([17]; COLI7881, 24 H): 0.1 µg/mL
MIC ([17]; COLI7881, 48 H): 0.1 µg/mL
MIC ([18]; 24 H): 0.1 µg/mL
MIC ([18]; 48 H): 0.1 µg/mL
MIC ([19]; 24 H): 0.2 µg/mL
MIC ([19]; 48 H): 0.4 µg/mL
affinity to atmospheric humidity / hygroscopicity ([1]; listed as crystalline D form): low affinity to atmospheric humidity
